In patent US8486953B2, “Thienopyrimidines for pharmaceutical compositions” (Boehringer Ingelheim International GmbH, priority 2008, dated 2013):
Each block holds one compound with its values, some of them ahead of it.

Assays:
human Mnk2a = human Mnk2a (Homo sapiens (Human), UniProt Q9HBH9); assay: Mnk2a in vitro kinase assay (indirect fluorescence polarization); assay type: biochemical
Description: (§1) Inhibitory potency of compounds against Mnk1, Mnk2a and other kinases was assessed with assays based on a format known to those skilled in the art as the indirect (competitive) fluorescence polarization. The assay detection system comprises a small fluorophore-labeled phospho-peptide (termed ligand) bound to a phospho-specific antibody. The product generated by the kinase reaction competes with the ligand for antibody binding. Based on the larger molecular volume of the bound ligand, which results in a lower rotation rate in solution, its emitted light has a higher degree of polarization than the one from the free ligand.
(§2) In brief, the open reading frames of human Mnk1 and Mnk2a were amplified from cDNA using the forward/reverse primer pairs
(§3) (utilized restriction sites underlined), respectively, and cloned into the BamHI and SalI sites of the vector pGEX-4T1 (Amersham, Sweden, cat. no. 27-4580-01). These constructs allow prokaryotic expression of Mnk1 or Mnk2a as fusion protein with a N-terminal glutathione S-transferase (GST) tag, referred to as GST-Mnk1 or GST-Mnk2a. The following expression and purification procedure was identical for GST-Mnk1 and GST-Mnk2a, referring in general to GST-Mnk, when not distinguishing between the two isoforms. Expression of GST-Mnk was in E. coli BL21 (Merck Biosciences, Germany, cat. no. 69449). Cells were grown in LB-Bouillon (Merck, Germany, cat. no. 1.10285) supplemented with 100 μg/ml ampicillin (Sigma, Germany, cat. no. A9518) at 37° C. When the culture had reached a density corresponding to an A600 of 0.8, an equal volume of ice cold LB/ampicillin was added, the culture transferred to 25° C. and induced for 4 h with 1 mM isopropyl thiogalactoside (IPTG, Roth, Germany, cat. no. 2316.4). Cells harvested by centrifugation were resuspended in 10 ml lysis buffer (50 mM tris(hydroxymethyl)aminomethane hydrochloride (Tris/HCl, Sigma, Germany, cat. no. T5941) pH 7.5, 300 mM sodium chloride (NaCl, Sigma, Germany, cat. no. S7653), 5% (w/v) glycerol (Sigma, Germany, cat. no. G5516), 3 mM DTT dithiotreitol (DTT, Sigma, Germany, cat. no. D9779)) per gram wet weight cell pellet. Lysates were prepared by disruption of cells with a sonifier and subsequent clearing by centrifugation at 38000 g for 45 min at 4° C.
(§4) The lysate was applied to a GSTPrep FF 16/10 column (Amersham, Sweden, cat. no. 17-5234-01) equilibrated with lysis buffer. Removal of unbound material was with 3 column volumes (CV) lysis buffer. Elution was with 2 CV of elution buffer (50 mM Tris/HCl pH 7.5, 300 mM NaCl, 5% (w/v) glycerol, 20 mM glutathione (Sigma, Germany, cat. no. G4251)). Peak fractions were pooled and the protein transferred into storage buffer (50 mM Tris/HCl pH 7.5, 200 mM NaCl, 0.1 mM ethylene glycol-bis(2-aminoethylether)-N,N,N′,N′-tetraacetic acid (EGTA, Aldrich, Germany, cat. no. 23, 453-2), 1 mM DTT, 10% (w/v) glycerol, 0.5 M sucrose (Sigma, Germany, cat. no. SO389) by gel filtration on a PD10 desalting column (Amersham, Sweden, cat. no. 17-0851-01). Aliquots were shock frozen in liquid nitrogen and stored at −80° C.
(§5) Activation of Mnk1 and Mnk2a was at a concentration of 2.5 μM of either purified GST-Mnk1 or GST-Mnk2a by incubation with 150 nM pre-activated NHis-ERK2 (see ERK2 assay for preparation) and 50 μM adenosine triphosphate (ATP, Sigma, cat. no. A2699) in a buffer comprising 20 mM N-(2-hydroxyethyl)piperazine-N′-(2-ethanesulfonic acid) (HEPES, Fluka, Germany, cat. no 54459)/potassium hydroxide (KOH, Roth, Germany, cat. no 6751.1) pH 7.4, 10 mM magnesium chloride (MgCl2, Sigma, Germany, cat. no. M2670), 0.25 mM DTT, 0.05% (w/v) polyoxyethylene 20 stearylether (Brij 78, Sigma, Germany, cat. no. P4019) (HMDB buffer) for 45 min at 30° C.

human Mnk1 = human Mnk1 (Homo sapiens (Human), UniProt Q9BUB5); assay: Mnk1 in vitro kinase assay (indirect fluorescence polarization); assay type: biochemical
human Mnk1, sequence (Q9BUB5 other isoform, or with tags, fused parts or gaps): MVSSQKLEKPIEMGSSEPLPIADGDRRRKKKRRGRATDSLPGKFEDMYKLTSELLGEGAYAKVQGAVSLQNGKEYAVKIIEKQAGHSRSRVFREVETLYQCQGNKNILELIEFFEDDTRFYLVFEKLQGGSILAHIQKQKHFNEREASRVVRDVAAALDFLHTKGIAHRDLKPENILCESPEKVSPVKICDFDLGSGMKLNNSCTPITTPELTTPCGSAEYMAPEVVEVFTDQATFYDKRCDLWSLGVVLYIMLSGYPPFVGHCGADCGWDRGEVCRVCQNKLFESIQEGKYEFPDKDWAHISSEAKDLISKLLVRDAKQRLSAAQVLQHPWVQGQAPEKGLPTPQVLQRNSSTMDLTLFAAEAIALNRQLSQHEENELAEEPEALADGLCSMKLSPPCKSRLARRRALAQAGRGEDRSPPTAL
Description: as §1, §2, §3, §4, §5

[1] = test system: Mnk2 (Mnk2a or Mnk2b) or Mnk1; conditions: cell culture cells transfected with Mnk2 (Mnk2a or Mnk2b) or Mnk1; cited from earlier work

human Mnk2a, sequence (Q9HBH9 whole entry): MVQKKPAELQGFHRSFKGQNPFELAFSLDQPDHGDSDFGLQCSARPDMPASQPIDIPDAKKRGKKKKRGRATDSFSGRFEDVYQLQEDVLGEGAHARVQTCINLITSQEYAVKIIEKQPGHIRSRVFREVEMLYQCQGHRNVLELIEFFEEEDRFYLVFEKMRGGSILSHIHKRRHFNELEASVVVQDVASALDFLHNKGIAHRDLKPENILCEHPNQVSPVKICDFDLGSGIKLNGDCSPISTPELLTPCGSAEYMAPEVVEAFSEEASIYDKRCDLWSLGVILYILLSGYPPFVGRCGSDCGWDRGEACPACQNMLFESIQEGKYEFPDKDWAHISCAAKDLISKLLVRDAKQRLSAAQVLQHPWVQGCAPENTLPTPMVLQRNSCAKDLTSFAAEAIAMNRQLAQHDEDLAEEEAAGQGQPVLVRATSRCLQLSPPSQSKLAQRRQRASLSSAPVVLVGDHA

Compound: CCOc1cc(C(N)=O)ccc1Nc1ncnc2sc(C(N)=O)c(C)c12 [Example 2, 4-(4-Carbamoyl-2-ethoxyphenylamino)-5-methylthieno[2,3-d]pyrimidine-6-carboxamide]
- IC50 (human Mnk2a): 28 nM
- IC50 (human Mnk1): 120 nM

Compound: Nc1ncnc2n[nH]c(Nc3ccc(F)cc3)c12 [CGP57380]
- reduction of phosphorylated eIF4E [1]: strong reduction

Compound: Cc1c(C(=O)NCCN2CCOCC2)sc2ncnc(Nc3ccc(F)cc3OC3CCOCC3)c12 [Example 10, 4-(4-Fluoro-2-(tetrahydro-2H-pyran-4-yloxy)phenylamino)-5-methyl-N-(2-morpholinoethyl)thieno[2,3-d]pyrimidine-6-carboxamide]
- IC50 (human Mnk2a): 34 nM
- IC50 (human Mnk1): 210 nM

Compound: Cc1c(C(=O)NCCCN(C)C)sc2ncnc(Nc3ccc(F)cc3OC(C)C)c12 [Example 53, N-(3-(Dimethylamino)propyl)-4-(4-fluoro-2-iso-propoxyphenylamino)-5-methylthieno[2,3-d]pyrimidine-6-carboxamide]
- IC50 (human Mnk2a): 6 nM
- IC50 (human Mnk1): 35 nM

Further lines, results first:

- IC50 (human Mnk2a): 27 nM
- IC50 (human Mnk1): 100 nM
Compound: Cc1c(C(=O)NCCCN(C)C)sc2ncnc(Nc3ccc(F)cc3OC3CCOCC3)c12 [Example 9, N-(3-(Dimethylamino)propyl)-4-(4-fluoro-2-(tetrahydro-2H-pyran-4-yloxy)phenyl-amino)-5-methylthieno[2,3-d]pyrimidine-6-carboxamide]

- IC50 (human Mnk2a): 92 nM
- IC50 (human Mnk1): 460 nM
Compound: Cc1c(C(N)=O)sc2ncnc(Nc3ccc(F)cc3OC3CCN(Cc4ncon4)CC3)c12 [Example 48, 4-(2-(1-((1,2,4-Oxadiazol-3-yl)methyl)piperidin-4-yloxy)-4-fluorophenylamino)-5-methylthieno[2,3-d]pyrimidine-6-carboxamide]

- IC50 (human Mnk2a): 110 nM
- IC50 (human Mnk1): 210 nM
Compound: Fc1ccc(Nc2ncnc3sc4c(c23)CCNC4)c(OC2CCOCC2)c1 [Example 41, [4-fluoro-2-(tetrahydro-2H-pyran-4-yloxy)-phenyl]-(5,6,7,8-tetrahydro-pyrido[4′,3′:4,5]thieno[2,3-d]pyrimidin-4-yl)-amine]

- IC50 (human Mnk2a): 35 nM
- IC50 (human Mnk1): 180 nM
Compound: COCCNC(=O)c1sc2ncnc(Nc3ccc(F)cc3OC3CCOCC3)c2c1C [Example 6, 4-(4-Fluoro-2-(tetrahydro-2H-pyran-4-yloxy)phenylamino)-N-(2-methoxyethyl)-5-methylthieno[2,3-d]pyrimidine-6-carboxamide]

- IC50 (human Mnk2a): 560 nM
- IC50 (human Mnk1): 680 nM
Compound: Cc1c(C(=O)NCCCN(C)C)sc2ncnc(Nc3ccc(C(F)(F)F)nc3OC3CCOCC3)c12 [Example 34, 4-(2-(Tetrahydro-2H-pyran-4-yloxy)-6-(trifluoromethyl)pyridin-3-ylamino)-N-(3-(dimethylamino)propyl)-5-methylthieno[2,3-d]pyrimidine-6-carboxamide]
